Assays:
SMYD3 = molecular target: T1, SMYD3 (Homo sapiens, UniProt Q9H7B4); assay: SMYD3 Scintillation Proximity Assay (SPA), methylation of MAP3K2 Peptide; type: biochemical; conditions: SMYD3 full length enzyme 10 nM, 3H-SAM 125 nM, MAP3K2 Peptide 1 μM, 120 min at 22° C.
T1 construct: The SMYD3 full length enzyme was produced in-house by expression (with an N-terminal 6×His tag) in E. coli; 6xHis (N); made in house; host or cells: E. coli
T1 sequence (Q9H7B4 1-428): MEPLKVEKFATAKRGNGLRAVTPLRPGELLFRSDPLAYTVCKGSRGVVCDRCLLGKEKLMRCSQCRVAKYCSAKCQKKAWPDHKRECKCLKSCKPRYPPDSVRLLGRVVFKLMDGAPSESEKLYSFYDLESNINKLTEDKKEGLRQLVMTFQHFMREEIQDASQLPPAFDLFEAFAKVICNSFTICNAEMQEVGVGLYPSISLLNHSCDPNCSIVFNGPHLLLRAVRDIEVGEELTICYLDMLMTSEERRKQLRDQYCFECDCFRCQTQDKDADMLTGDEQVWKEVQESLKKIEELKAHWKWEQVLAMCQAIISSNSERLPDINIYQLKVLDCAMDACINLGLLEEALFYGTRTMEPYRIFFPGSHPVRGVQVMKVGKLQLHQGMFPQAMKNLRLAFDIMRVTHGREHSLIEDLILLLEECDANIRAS
Protocol: SMYD3 Scintillation Proximity Assay (SPA)
The SMYD3 full length enzyme was produced in-house by expression (with an N-terminal 6×His tag) in E. coli and purification by affinity chromatography on a Ni-NTA Sepharose column followed by a size exclusion chromatography step on a Superdex 200 16/60 column (GE Healthcare).
To this end, 100-fold concentrated compound solutions (in DMSO) were previously prepared by serial dilution (1:3.4) of 2 mM stocks in a clear low volume 384-well source microtiter plate (Greiner Bio-One), from which 100 nl of compounds were transferred into a white low volume test microtiter plate from the same supplier. […] The resulting mixture (5 μl final volume) was shortly centrifuged (2 min., 1500 rpm) and incubated at 22° C. during 120 min. […] Plates containing the stopped reaction were sealed with transparent adhesive foil (Perkin Elmer), centrifuged (2 min., 1500 rpm), and further incubated overnight at 4° C. in order to allow the SPA signals to develop. Subsequently, the amount of product was evaluated by measuring the energy transfer from the […] emitted by the 3H-labeled substrate to the scintillator co-polymerized in the bead's matrix, using a TopCount NXT scintillation counter (Packard) with the standard instrument settings for this purpose. The resulting scintillation counts were taken as indicator for the amount of methylated peptide per well. […] IC50 values were calculated by fitting the normalized inhibition data to a 4-parameter logistic equation using the XLFit analysis software (IDBS).

[1] = molecular target: T2, untagged full length SMYD3 (Homo sapiens, UniProt Q9H7B4); assay: Thermal Shift Assay; type: binding; conditions: protein 1.5-2.0 μM, 5× SYPRO Orange, scans 25° C. to 80° C.; control 4% DMSO
T2 construct: As protein untagged full length SMYD3 was used
T2 sequence (Q9H7B4 1-428): T1 sequence (Q9H7B4 1-428)
Protocol: Thermal Shift Assay Thermal melting experiments were performed with a ViiA™ Real-Time PCR machine (Thermo Fisher Scientific) in 384-well microliter plate with a final volume of 5 μL. Melting curves were obtained at a protein concentration of 1.5-2.0 μM and 5× SYPRO Orange (Invitrogen) using buffer containing 20 mM Tris pH7.0; 150 mM NaCl; 1.0 mM DTT. As protein untagged full length SMYD3 was used. […] As control 4% DMSO was used. Scans were measured from 25° C. to 80° C. at a scanning rate of 0.1° C./sec. All TSA data were analyzed by using Genedata Assay Analyzer.

SMILES | IC50 (SMYD3) [µM] | Thermal shift assay (° C.) [1] [°C]
CC1C(=O)Nc2cc(C(=O)NCCC3CC3)ccc2N(C(=O)c2ccccc2)C1C (mixture of isomers) [Example 2, 1-benzoyl-N-(2-cyclopropylethyl)-2,3-dimethyl-4-oxo-2,3,4,5-tetrahydro-1H-1,5-benzodiazepine-7-carboxamide] | 1.26 | 5.21
CC1C(=O)Nc2cc(C(=O)NCCC3CCC3)ccc2N(C(=O)c2ccccc2)C1C (mixture of isomers) [Example 4, 1-benzoyl-N-(2-cyclobutylethyl)-2,3-dimethyl-4-oxo-2,3,4,5-tetrahydro-1H-1,5-benzodiazepine-7-carboxamide] | 1.23 | 4.38
CC1C(=O)Nc2cc(C(=O)NCCC3CC3)ccc2N(C(=O)N2CCC(N)CC2)C1C (mixture of isomers) [Example 19, 1-[(4-aminopiperidin-1-yl)carbonyl]-N-(2-cyclopropylethyl)-2,3-dimethyl-4-oxo-2,3,4,5-tetrahydro-1H-1,5-benzodiazepine-7-carboxamide] | 0.0372 | 10.30
CC1CC(=O)Nc2cc(C(=O)NCCC3CC3)ccc2N1C(=O)c1ccccc1 (racemic) [Example 1, 1-benzoyl-N-(2-cyclopropylethyl)-2-methyl-4-oxo-2,3,4,5-tetrahydro-1H-1,5-benzodiazepine-7-carboxamide] | 1.66 | 5.27
CC1CC(=O)Nc2cc(C(=O)NCCC3CCC3)ccc2N1C(=O)c1ccccc1 (racemic) [Example 3, 1-benzoyl-N-(2-cyclobutylethyl)-2-methyl-4-oxo-2,3,4,5-tetrahydro-1H-1,5-benzodiazepine-7-carboxamide] | 1.63 | 4.56
Cc1nocc1C(=O)N1c2ccc(C(=O)NCCC3CC3)cc2NC(=O)CC1C (racemic) [Example 5, N-(2-cyclopropylethyl)-2-methyl-1-[(3-methyl-1,2-oxazol-4-yl)carbonyl]-4-oxo-2,3,4,5-tetrahydro-1H-1,5-benzodiazepine-7-carboxamide] | > 20 | 2.90
Cc1nocc1C(=O)N1c2ccc(C(=O)NCCC3CCC3)cc2NC(=O)CC1C (racemic) [Example 6, N-(2-cyclobutylethyl)-2-methyl-1-[(3-methyl-1,2-oxazol-4-yl)carbonyl]-4-oxo-2,3,4,5-tetrahydro-1H-1,5-benzodiazepine-7-carboxamide] | 12.8 | 2.83
CCCCCNC(=O)c1ccc2c(c1)NC(=O)CC(C)N2C(=O)c1ccccc1F (racemic) [Example 46, 1-(2-fluorobenzoyl)-2-methyl-4-oxo-N-pentyl-2,3,4,5-tetrahydro-1H-1,5-benzodiazepine-7-carboxamide] | 38.7 | 2.02
CCCCCNC(=O)c1ccc2c(c1)NC(=O)CC(C)N2C(=O)c1ccc(C)cc1 (racemic) [Example 47, 2-methyl-1-(4-methylbenzoyl)-4-oxo-N-pentyl-2,3,4,5-tetrahydro-1H-1,5-benzodiazepine-7-carboxamide] | 22.1 | 1.68
CCCCCNC(=O)c1ccc2c(c1)NC(=O)CC(C)N2C(=O)C1CCCC1 (racemic) [Example 48, 1-(cyclopentylcarbonyl)-2-methyl-4-oxo-N-pentyl-2,3,4,5-tetrahydro-1H-1,5-benzodiazepine-7-carboxamide] | 26.7 | 1.60
CCCNC(=O)c1ccc2c(c1)NC(=O)CC(C)N2C(=O)c1cccs1 (racemic) [Example 49, 2-methyl-4-oxo-N-propyl-1-(2-thienylcarbonyl)-2,3,4,5-tetrahydro-1H-1,5-benzodiazepine-7-carboxamide] | – | 1.43
CCCCNC(=O)c1ccc2c(c1)NC(=O)CC(C)N2C(=O)C1CC1 (racemic) [Example 50, N-butyl-1-(cyclopropylcarbonyl)-2-methyl-4-oxo-2,3,4,5-tetrahydro-1H-1,5-benzodiazepine-7-carboxamide] | 35 | –
CCCCNC(=O)c1ccc2c(c1)NC(=O)CC(C)N2C(=O)CCC1CCCC1 (racemic) [Example 51, N-butyl-1-(3-cyclopentylpropanoyl)-2-methyl-4-oxo-2,3,4,5-tetrahydro-1H-1,5-benzodiazepine-7-carboxamide] | 24.4 | 1.83
CCCCNC(=O)c1ccc2c(c1)NC(=O)CC(C)N2C(=O)c1cccc(F)c1 (racemic) [Example 52, N-butyl-1-(3-fluorobenzoyl)-2-methyl-4-oxo-2,3,4,5-tetrahydro-1H-1,5-benzodiazepine-7-carboxamide] | 18.3 | 1.16
CCCCNC(=O)c1ccc2c(c1)NC(=O)CC(C)N2C(=O)c1ccccc1F (racemic) [Example 53, N-butyl-1-(2-fluorobenzoyl)-2-methyl-4-oxo-2,3,4,5-tetrahydro-1H-1,5-benzodiazepine-7-carboxamide] | 12.3 | 2.53
Cc1nocc1C(=O)N1c2ccc(C(=O)NCCC3CC3)cc2NC(=O)C(C)C1C (single isomer, unassigned) [Example 8, N-(2-cyclopropylethyl)-2,3-dimethyl-1-[(3-methyl-1,2-oxazol-4-yl)carbonyl]-4-oxo-2,3,4,5-tetrahydro-1H-1,5-benzodiazepine-7-carboxamide] | 4.9 | 3.77
Cc1nocc1C(=O)N1c2ccc(C(=O)NCCC3CC3)cc2NC(=O)C(C)C1C (single isomer, unassigned) [Example 9, N-(2-cyclopropylethyl)-2,3-dimethyl-1-[(3-methyl-1,2-oxazol-4-yl)carbonyl]-4-oxo-2,3,4,5-tetrahydro-1H-1,5-benzodiazepine-7-carboxamide] | > 20 | 1.82
Cc1nocc1C(=O)N1c2ccc(C(=O)NCCC3CC3)cc2NC(=O)C(C)C1C (single isomer, unassigned) [Example 10, N-(2-cyclopropylethyl)-2,3-dimethyl-1-[(3-methyl-1,2-oxazol-4-yl)carbonyl]-4-oxo-2,3,4,5-tetrahydro-1H-1,5-benzodiazepine-7-carboxamide] | > 20 | 1.29
Cc1nocc1C(=O)N1c2ccc(C(=O)NCCC3CC3)cc2NC(=O)C(C)C1C (single isomer, unassigned) [Example 11, N-(2-cyclopropylethyl)-2,3-dimethyl-1-[(3-methyl-1,2-oxazol-4-yl)carbonyl]-4-oxo-2,3,4,5-tetrahydro-1H-1,5-benzodiazepine-7-carboxamide] | 12.9 | 3.50
C[C@H]1CC(=O)Nc2cc(C(=O)N(C)CCC3CC3)ccc2N1C(=O)N1CC2CC2C1 (stereo partly drawn) [Example 54, (2S)-1-(3-azabicyclo[3.1.0]hexane-3-carbonyl)-N-(2-cyclopropylethyl)-N,2-dimethyl-4-oxo-2,3,4,5-tetrahydro-1H-1,5-benzodiazepine-7-carboxamide] | 2.53 | –
C[C@@H]1CC(=O)Nc2cc(C(=O)NCCC3CC3)ccc2N1C(=O)N1CC2CC2C1 (stereo partly drawn) [Example 55, (2R)-1-(3-azabicyclo[3.1.0]hexane-3-carbonyl)-N-(2-cyclopropylethyl)-2-methyl-4-oxo-2,3,4,5-tetrahydro-1H-1,5-benzodiazepine-7-carboxamide] | 2.64 | –
C[C@@H]1CC(=O)Nc2cc(C(=O)N(C)CCC3CC3)ccc2N1C(=O)N1CC2CC2C1 (stereo partly drawn) [Example 56, (2R)-1-(3-azabicyclo[3.1.0]hexane-3-carbonyl)-N-(2-cyclopropylethyl)-N,2-dimethyl-4-oxo-2,3,4,5-tetrahydro-1H-1,5-benzodiazepine-7-carboxamide] | > 30 | –
